Reference: patent publication US6809106B1, “Quinoline derivatives as inhibitors of MEK enzymes” (AstraZeneca AB, priority 1999, dated 2004)

Assays:
[1] = system: HT29 human colon tumour cells; assay: Cell proliferation assays; format: cell-based; settings: 72 hours incubation
Method: Cell Proliferation Assays
Cells were seeded into multi-well plates at 20 000-40 000 cells/ml in growth medium containing 5% FCS and incubated overnight at 37° C. The compounds were prepared in fresh medium at an appropriate concentration and added to the wells containing the cells. These were then incubated for a further 72 hours. Cells were then either removed from the wells by incubating with trypsin/EDTA and counted using a Coulter counter, or treated with KIT/PMS in PBSA and optical densities read at […].

[2] = target: human p45MEK1 (GST-MEK) (Homo sapiens, UniProt Q02750); assay: Assay for inhibitors of the MAP kinase pathway (coupled GST-MEK/GST-MAPK/MBP 33P assay); format: biochemical; settings: GST-MEK activated by c-raf, MBP substrate, 8.33 μM ATP
human p45MEK1 (GST-MEK), sequence (Q02750 whole entry): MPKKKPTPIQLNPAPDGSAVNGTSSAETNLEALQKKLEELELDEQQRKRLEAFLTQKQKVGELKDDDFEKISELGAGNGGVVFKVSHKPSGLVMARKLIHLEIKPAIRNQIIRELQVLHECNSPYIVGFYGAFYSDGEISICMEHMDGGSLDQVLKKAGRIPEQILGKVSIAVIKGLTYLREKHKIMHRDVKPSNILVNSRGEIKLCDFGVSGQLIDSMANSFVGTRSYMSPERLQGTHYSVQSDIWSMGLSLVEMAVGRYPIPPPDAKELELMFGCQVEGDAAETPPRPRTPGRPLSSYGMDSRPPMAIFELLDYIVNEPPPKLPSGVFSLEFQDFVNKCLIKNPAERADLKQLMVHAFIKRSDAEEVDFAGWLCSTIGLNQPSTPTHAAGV
Method: Assay for Inhibitors of the MAP Kinase Pathway
To evaluate inhibitors of the MAPK pathway a coupled assay was carried out which measures phosphorylation of serine/threonine residues present in the substrate in the presence or absence of inhibitor. Recombinant glutathione S-transferase fusion protein containing human p45MEK1 (GST-MEK) was activated by c-raf (Sf9 insect cell lysate from triple baculoviral infection with c-raf/ras/lck) and used for the assay. Active GST-MEK was first used to activate a recombinant glutathione S-transferase fusion protein containing p44MAP kinase (GST-MAPK) in the presence of ATP and Mg^2+ for 60min at room temperature in the presence or absence of potential inhibitors. The activated GST-MAPK was then incubated with myelin basic protein (MBP) as substrate for 10 min at room temperature in the presence of ATP, Mg^2+ and ^33P-ATP. The reaction was stopped by addition of 20% v/v phosphoric acid. Incorporation of ^33P into the myelin basic protein was determined by capture of the substrate on a filter mat, washing and counting using scintillation methods. The extent of inhibition was determined by comparison with untreated controls.
The final assay solution contained 10 mM Tris, pH 7.5, 0.05 mM EGTA, 8.33 μM [γ^33P]ATP, 8.33 mM Mg(OAc)2, 0.5 mM sodium orthovanadate, 0.05% w/v BSA, 6.5 ng GST-MEK, 1 μg GST-MAPK and 16.5 μg MBP in a reaction volume of […].

IC50 [1] [nM] | IC50 [2] [nM] | Structure (SMILES)
3400 | – | COc1cc2ncc(Cl)c(Nc3ccc(Oc4ccccc4OC)cc3)c2cc1OC [Compound 1, 4-(2-methoxyphenoxy)-anilino-3-chloro-6,7-dimethoxyquinoline]
– | 1530 | COc1cc2ncc(Cl)c(Nc3ccc(Cl)c(Cl)c3)c2cc1OC [Compound 5]
